# Data published in patent publication US10000535B2, “Template-fixed peptidomimetics” (POLYPHOR LTD., priority 2007, dated 2018).
# Non-standard residues stand in square brackets, D forms with d. Residues, ends and D or L forms follow the SMILES beside them. Aze = O=C(O)[C@@H]1CCN1
# Legend:
# Format in all cases: cell-based
# [1] = target: T1, human CCR10 (Homo sapiens, UniProt P46092); assay: Calcium flux antagonism assay with human CCL27; conditions: at 10 μM
# T1 construct: expressed in transfected cells; host or cells: mouse pre-B cell line 300-19
# T1 sequence (P46092 1-362): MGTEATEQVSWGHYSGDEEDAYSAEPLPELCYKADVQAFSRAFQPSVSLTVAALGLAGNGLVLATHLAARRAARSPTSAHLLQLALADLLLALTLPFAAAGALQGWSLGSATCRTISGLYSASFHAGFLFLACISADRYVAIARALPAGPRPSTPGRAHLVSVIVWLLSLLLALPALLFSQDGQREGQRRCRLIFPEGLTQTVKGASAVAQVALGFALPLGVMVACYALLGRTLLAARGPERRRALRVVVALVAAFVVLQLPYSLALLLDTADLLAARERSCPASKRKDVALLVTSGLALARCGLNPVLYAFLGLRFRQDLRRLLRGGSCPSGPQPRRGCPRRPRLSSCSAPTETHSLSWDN
# Method: (§1) The mouse pre-B cell line 300-19 was stably transfected with the cDNA encoding the human UTR2 receptor (GenBank Acc#NM_018949), and expression was confirmed with a positive calcium signal in response to human urotensin (Sigma Aldrich). Increases in intracellular calcium were monitored using a Flexstation 384 (Molecular Devices, Sunnyvale, Calif.). The cells were batch loaded with the Calcium 3 Assay kit (Molecular Devices) in assay buffer (Hanks Balanced salt solution, HBSS, 20 mM HEPES, pH 7.4, 0.1% BSA) for 1 h at room temperature and labeled cells were dispensed into either black 96 well or 384 well assay plates (Greiner). Calcium mobilization induced by urotensin or compounds was measured in the Flexstation 384 (excitation, […]) for 70 seconds. Agonist activity was determined by direct addition of ligand or peptides, while antagonists were identified by pre-incubation of compounds with cells prior to urotensin addition. A dose response curve (compound concentration versus % maximum response for urotensin) was determined for each active agonist and antagonist and was fitted to a four parameter logistic equation using SoftmaxPro 4.6 (Molecular Devices), from which EC50% and IC50% values were calculated.
# Peptides for CCR10 (Marchese et. al. 1994, Homey et. al.) and CXCR3 (Loetscher et. al. 1998, Marchese et. al. 1995) antagonism were assayed in a mouse pre-B cell line 300-19 stably transfected with either human CCR10 or CXCR3 (Marchese et. al. 1995). Antagonism at each receptor was measured with a calcium flux assay in these cells as described above for UTR2 assays using human CCL27 and human CXCL10 (Cole et. al.) for CCR10 and CXCR3 respectively.
# (§2) Selectivity was measured using the calcium flux assay on a panel of human chemokine receptor bearing cell lines (CCR1, CCR2, CCR3, CCR4, CCR5, CCR6, CCR7, CCR8, CCR9, CCR10, CXCR1, CXCR2, CXCR2, CXCR4, CXCR6 and CXCCR1) using the same method as above
# [2] = target: T2, CCR4 (Homo sapiens, UniProt P51679); assay: Selectivity calcium flux assay, chemokine receptor panel; conditions: at 10 μM
# T2 sequence (P51679 1-360): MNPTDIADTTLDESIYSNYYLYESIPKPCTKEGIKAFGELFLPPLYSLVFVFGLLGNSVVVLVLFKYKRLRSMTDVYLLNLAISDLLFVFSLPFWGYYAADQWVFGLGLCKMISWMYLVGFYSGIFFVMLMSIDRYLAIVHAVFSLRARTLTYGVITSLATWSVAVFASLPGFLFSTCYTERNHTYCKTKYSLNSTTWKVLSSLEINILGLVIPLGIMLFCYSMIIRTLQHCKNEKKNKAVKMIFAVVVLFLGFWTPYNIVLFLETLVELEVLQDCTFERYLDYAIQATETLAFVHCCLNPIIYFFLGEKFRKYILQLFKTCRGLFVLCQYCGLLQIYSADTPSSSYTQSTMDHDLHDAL
# Method: as §2
# [3] = target: CXCR6 (Homo sapiens, UniProt O00574); assay: as above; conditions: at 10 μM
# Sequence of CXCR6 (O00574 whole entry): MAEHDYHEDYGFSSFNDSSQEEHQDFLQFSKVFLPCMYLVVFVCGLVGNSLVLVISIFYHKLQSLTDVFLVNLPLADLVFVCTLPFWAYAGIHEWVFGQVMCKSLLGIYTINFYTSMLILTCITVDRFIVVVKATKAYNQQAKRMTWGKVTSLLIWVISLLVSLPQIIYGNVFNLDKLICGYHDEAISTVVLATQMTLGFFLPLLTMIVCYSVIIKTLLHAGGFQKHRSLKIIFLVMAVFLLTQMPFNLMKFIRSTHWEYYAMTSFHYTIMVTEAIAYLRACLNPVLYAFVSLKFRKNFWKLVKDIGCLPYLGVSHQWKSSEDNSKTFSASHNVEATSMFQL
# Method: as §2
# [4] = target: CXCR4 chemokine receptor (Homo sapiens, UniProt P61073); assay: as above; conditions: at 10 μM
# Sequence of CXCR4 chemokine receptor (P61073 whole entry): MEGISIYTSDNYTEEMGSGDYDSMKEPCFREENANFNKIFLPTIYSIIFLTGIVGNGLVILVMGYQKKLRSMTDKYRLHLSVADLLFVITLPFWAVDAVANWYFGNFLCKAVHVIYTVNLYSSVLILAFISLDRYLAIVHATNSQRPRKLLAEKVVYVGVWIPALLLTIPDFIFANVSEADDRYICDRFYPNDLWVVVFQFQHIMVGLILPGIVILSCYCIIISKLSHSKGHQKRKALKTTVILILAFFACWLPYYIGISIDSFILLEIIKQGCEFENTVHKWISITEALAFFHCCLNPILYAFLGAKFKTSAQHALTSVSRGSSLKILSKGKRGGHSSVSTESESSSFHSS
# Method: as §2
# [5] = target: CCR8 (Homo sapiens, UniProt P51685); assay: as above; conditions: at 10 μM
# Sequence of CCR8 (P51685 whole entry): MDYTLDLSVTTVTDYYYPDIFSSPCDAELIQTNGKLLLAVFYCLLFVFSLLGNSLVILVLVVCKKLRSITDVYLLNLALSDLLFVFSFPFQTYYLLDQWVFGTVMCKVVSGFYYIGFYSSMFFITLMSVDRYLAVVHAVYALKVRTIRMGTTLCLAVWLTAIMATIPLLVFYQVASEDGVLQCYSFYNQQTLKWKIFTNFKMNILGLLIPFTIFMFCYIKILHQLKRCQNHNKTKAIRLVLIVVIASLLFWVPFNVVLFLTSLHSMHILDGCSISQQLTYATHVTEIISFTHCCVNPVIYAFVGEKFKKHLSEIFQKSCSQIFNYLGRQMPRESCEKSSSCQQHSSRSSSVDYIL
# Method: as §2
# [6] = target: T3, CXCCR1 (Homo sapiens, UniProt P49238); assay: as above; conditions: at 10 μM
# T3 sequence (P49238 1-355): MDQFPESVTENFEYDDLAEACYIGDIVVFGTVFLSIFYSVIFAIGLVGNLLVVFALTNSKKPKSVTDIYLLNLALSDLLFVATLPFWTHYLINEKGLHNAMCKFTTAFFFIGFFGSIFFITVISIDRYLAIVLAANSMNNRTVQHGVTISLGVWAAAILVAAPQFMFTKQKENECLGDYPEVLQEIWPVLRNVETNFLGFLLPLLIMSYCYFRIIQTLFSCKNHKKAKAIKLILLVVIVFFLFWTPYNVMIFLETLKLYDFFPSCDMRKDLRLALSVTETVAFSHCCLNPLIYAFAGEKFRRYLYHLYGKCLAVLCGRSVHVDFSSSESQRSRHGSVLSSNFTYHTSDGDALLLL
# Method: as §2
# [7] = target: T4, human CXCR3 (Homo sapiens, UniProt P49682); assay: Calcium flux antagonism assay with human CXCL10; conditions: 300-19 cells with human CXCR3, read-out: IC50% (μM) ± SD, CXCR3 receptor
# T4 construct: expressed in transfected cells; host or cells: mouse pre-B cell line 300-19
# T4 sequence (P49682 1-368): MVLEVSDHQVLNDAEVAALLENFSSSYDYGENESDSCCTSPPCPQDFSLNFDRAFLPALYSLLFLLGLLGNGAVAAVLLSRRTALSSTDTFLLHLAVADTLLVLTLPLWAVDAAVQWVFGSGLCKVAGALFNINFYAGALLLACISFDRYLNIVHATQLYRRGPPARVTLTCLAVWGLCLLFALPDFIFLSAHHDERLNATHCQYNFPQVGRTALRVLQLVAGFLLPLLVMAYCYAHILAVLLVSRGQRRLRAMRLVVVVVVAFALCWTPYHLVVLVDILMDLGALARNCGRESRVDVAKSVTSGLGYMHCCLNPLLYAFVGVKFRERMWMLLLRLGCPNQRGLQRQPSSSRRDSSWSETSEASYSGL
# Method: as §1, with “calculated. […]” for “calculated.”
Compound,selectivity against CCR10 [1],selectivity against CCR4 [2],selectivity against CXCR6 [3],selectivity against CXCR4 chemokine receptor [4],selectivity against CCR8 [5],selectivity against CXCCR1 [6],IC50 [7]
C[C@@H]1NC(=O)[C@H](CCCNC(=N)N)NC(=O)[C@H](Cc2c[nH]c3ccccc23)NC(=O)[C@H](Cc2ccc(O)cc2)NC(=O)[C@@H]2CCN2C(=O)[C@H]2CCCN2C1=O [Example 16] (cyclo(YWRA[dP][Aze])),highly selective,highly selective,highly selective,highly selective,highly selective,highly selective,8.1 µM
N=C(N)NCCC[C@@H]1NC(=O)[C@H](Cc2c[nH]c3ccccc23)NC(=O)[C@H](Cc2ccc(O)cc2)NC(=O)[C@@H]2CCN2C(=O)[C@H]2CCCN2C(=O)CNC1=O [Example 15] (cyclo(YWRG[dP][Aze])),highly selective,highly selective,highly selective,highly selective,highly selective,highly selective,8.6 µM
